Measured values: patent publication US9073863B2, “Cyanoquinoline compounds having activity in correcting mutant-CFTR processing and increasing ion transport and uses thereof” (The Regents of the University of California, priority 2011, dated 2015)

Columns and labels:
Assay type in all cases: cell-based
ΔF508-CFTR [1] = target: T1, ΔF508-CFTR (Homo sapiens, UniProt P13569, DEL508-508); test: Corrector assay, YFP fluorescence plate reader iodide influx in ΔF508-CFTR expressing FRT cells; conditions: for corrector and potentiator activities, in words: concentration-dependence in corrector and potentiator I− influx assays (FIG. 2, FIG. 7); for Corrector Vmax / EC50 / Corrector EC50: 18-24 h with compound at 37° C., forskolin 20 μM + genistein 50 μM
T1 construct: expressed in transfected cells; host or cells: Fischer rat thyroid (FRT) epithelial cells, stably transfected
Protocol: (§1) Screening procedures. Screening of compounds for activity was carried out using a Beckman Coulter platform equipped with FLUOstar fluorescence plate readers (Optima; BMG Labtech) with dual syringe pumps and 500±10 nm excitation and 535±15 nm emission filters (Chroma Corp.). For the corrector assay, FRT cells were grown at 37° C./5% CO2 for 18-24 h and then incubated for 18-24 h with 100 μL of medium containing test compounds (25 μM final concentration). At the time of the assay, cells were washed with PBS and then incubated for 10 min with PBS containing forskolin (20 μM) and genistein (50 μM). For the potentiator assay, FRT cells were grown at 37° C./5% CO2 for 18-24 h and then for 18-24 h at 27° C. At the time of the assay, cells were washed with PBS and then incubated for 10 min with PBS (50 μL) containing forskolin (20 μM) and test compound (0-25 μM final concentration). For both the corrector and potentiator assays, each well was assayed individually for I^− influx by recording fluorescence continuously (200 ms per point) for 2 s (baseline) and then for 12 s after rapid addition of 165 μL PBS in which 137 mM Cl^− was replaced by I^−. Initial I^− influx rate was computed by fitting the final 11.5 seconds of the data to an exponential for extrapolation of initial slope, which was normalized for background-subtracted initial fluorescence. All compound plates contained negative controls and positive controls (10 μM Corr-4a for corrector assay; 50 μM genistein for potentiator assay).
(§2) Screening of about 110,000 small molecules was done to identify new ΔF508-CFTR corrector scaffolds having high correction efficiency and/or having independent potentiator activity. […] FRT cells co-expressing human ΔF508-CFTR and a halide-sensing YFP were incubated with test compounds at 37° C. (corrector assay) or 27° C. (potentiator assay). ΔF508-CFTR function was assayed in a plate reader from YFP fluorescence quenching in response to iodide addition in the presence of forskolin (20 μM) plus genistein (50 μM) for corrector assay, or forskolin (20 μM) alone for potentiator assay. As shown in FIG. 1A (left), primary screening for corrector activity was done using a cell-based fluorescence assay of iodide influx in which FRT cells expressing ΔF508-CFTR and an iodide-sensitive YFP were incubated with test compounds at 10 μM for 18-24 h prior to assay. Iodide influx was measured by addition of extracellular iodide in the presence of a potentiator (50 μM genistein) and cAMP agonist (20 μM forskolin). Compound efficacy and potency (from concentration-dependence studies) in the corrector assay were compared to reference bithiazole Corr-4a (10 μM) and to low-temperature rescued cells. Active compounds were counter-screened for potentiator activity (FIG. 1A, right) in which iodide influx was measured in the ΔF508-CFTR expressing FRT cells after low-temperature rescue and in the presence of 20 μM forskolin.
(§3) Screening procedures. Plate reader activity assay was carried out using a Beckman Coulter platform containing a robotic arm, CO2 incubator containing microplate carousel, plate-washer, liquid handling work station, bar code reader, de-lidding station, plate sealer, and FLUOstar fluorescence plate readers (Optima; BMG LABTECH Gmbh), equipped with dual syringe pumps and 500±10 nm excitation and 535±15 nm emission filters (Chroma Corp.). For the corrector assay, ΔF508-CFTR-expressing FRT cells were grown at 37° C. (90% humidity; 5% CO2) for 18-24 h and then incubated for 18-24 h with 100 μL of medium containing test compounds (0-25 μM final concentration). At the time of the assay, cells were washed with PBS and then incubated for 10 min with PBS containing forskolin (20 μM) and genistein (50 μM). For the potentiator assay, FRT cells were grown at 37° C. (90% humidity; 5% CO2) for 18-24 h and then for 18-24 h at 27° C. […]

ΔF508-CFTR [2] = target: T1, ΔF508-CFTR; test: Short-circuit current (apical membrane chloride current) corrector assay in ΔF508-CFTR expressing FRT cells; conditions: 10 μM, 18-24 h incubation
Protocol: Short-circuit current measurements. ΔF508-CFTR-expressing FRT cells were cultured on Snapwell inserts for 7-9 days. For corrector testing, test compounds were incubated with FRT cells for 18-24 h at 37° C. prior to measurements. For potentiator testing, the FRT cells were incubated for 18-24 h at 27° C. prior to measurements. The basolateral solution contained 130 mM NaCl, 2.7 mM KCl, 1.5 mM KH2PO4, 1 mM CaCl2, 0.5 mM MgCl2, 10 mM glucose, and 10 mM Na-HEPES (pH 7.3). In the apical bathing solution, 65 mM NaCl was replaced by Na gluconate, and CaCl2 was increased to 2 mM. Solutions were bubbled with air and maintained at 37° C. The basolateral membrane was permeabilized with 250 μg/ml amphotericin B. Hemichambers were connected to a DVC-1000 voltage clamp (World Precision Instruments Inc.) via Ag/AgCl electrodes and 1 M KCl agar bridges for recording of short-circuit current.
Short-circuit current was measured as a definitive electrophysiological assay to verify Compound 22 corrector action. Apical membrane chloride current was measured in ΔF508-CFTR expressing FRT cells after basolateral membrane permeabilization and in the presence of a transepithelial chloride gradient (apical, 65 mM; basolateral, 130 mM). In FIG. 3C, incubation with Corr-4a (5 μM) is shown as reference (right). Forskolin (20 μM), genistein (50 μM) and CFTRinh-172 (10 μM) were added where indicated. […] FIG. 3D summarizes Compound 22 concentration dependence data from short-circuit current studies. […]
Short-circuit current was measured in an electrophysiology assay to verify corrector activity. Apical membrane chloride current was measured in ΔF508-CFTR expressing FRT cells after basolateral membrane permeabilization and in the presence of a transepithelial chloride gradient. […] To assay potentiator activity apical membrane chloride current was measured after low-temperature rescue, in response to CP-3 addition. CP-3 concentration-dependent increases in apical membrane current were measured in the presence of 5 μM forskolin. […]

ΔF508-CFTR [3] = target: T1, ΔF508-CFTR; test: Potentiator assay, YFP fluorescence plate reader iodide influx in low-temperature rescued ΔF508-CFTR expressing FRT cells; conditions: for EC50 / Potentiator Vmax / Potentiator EC50: forskolin 20 μM + test compound
Protocol: as §1, §2, §3

[4] = Table IX, additional experiments, 18-24 h at 27° C.
[5] = Table IX, additional experiments
[6] = Table VIII, FRT cells 18-24 h at 27° C., I− influx
[7] = Table VIII, FRT cells, I− influx

T1 sequence (P13569 with tags, fused parts or gaps DEL508-508): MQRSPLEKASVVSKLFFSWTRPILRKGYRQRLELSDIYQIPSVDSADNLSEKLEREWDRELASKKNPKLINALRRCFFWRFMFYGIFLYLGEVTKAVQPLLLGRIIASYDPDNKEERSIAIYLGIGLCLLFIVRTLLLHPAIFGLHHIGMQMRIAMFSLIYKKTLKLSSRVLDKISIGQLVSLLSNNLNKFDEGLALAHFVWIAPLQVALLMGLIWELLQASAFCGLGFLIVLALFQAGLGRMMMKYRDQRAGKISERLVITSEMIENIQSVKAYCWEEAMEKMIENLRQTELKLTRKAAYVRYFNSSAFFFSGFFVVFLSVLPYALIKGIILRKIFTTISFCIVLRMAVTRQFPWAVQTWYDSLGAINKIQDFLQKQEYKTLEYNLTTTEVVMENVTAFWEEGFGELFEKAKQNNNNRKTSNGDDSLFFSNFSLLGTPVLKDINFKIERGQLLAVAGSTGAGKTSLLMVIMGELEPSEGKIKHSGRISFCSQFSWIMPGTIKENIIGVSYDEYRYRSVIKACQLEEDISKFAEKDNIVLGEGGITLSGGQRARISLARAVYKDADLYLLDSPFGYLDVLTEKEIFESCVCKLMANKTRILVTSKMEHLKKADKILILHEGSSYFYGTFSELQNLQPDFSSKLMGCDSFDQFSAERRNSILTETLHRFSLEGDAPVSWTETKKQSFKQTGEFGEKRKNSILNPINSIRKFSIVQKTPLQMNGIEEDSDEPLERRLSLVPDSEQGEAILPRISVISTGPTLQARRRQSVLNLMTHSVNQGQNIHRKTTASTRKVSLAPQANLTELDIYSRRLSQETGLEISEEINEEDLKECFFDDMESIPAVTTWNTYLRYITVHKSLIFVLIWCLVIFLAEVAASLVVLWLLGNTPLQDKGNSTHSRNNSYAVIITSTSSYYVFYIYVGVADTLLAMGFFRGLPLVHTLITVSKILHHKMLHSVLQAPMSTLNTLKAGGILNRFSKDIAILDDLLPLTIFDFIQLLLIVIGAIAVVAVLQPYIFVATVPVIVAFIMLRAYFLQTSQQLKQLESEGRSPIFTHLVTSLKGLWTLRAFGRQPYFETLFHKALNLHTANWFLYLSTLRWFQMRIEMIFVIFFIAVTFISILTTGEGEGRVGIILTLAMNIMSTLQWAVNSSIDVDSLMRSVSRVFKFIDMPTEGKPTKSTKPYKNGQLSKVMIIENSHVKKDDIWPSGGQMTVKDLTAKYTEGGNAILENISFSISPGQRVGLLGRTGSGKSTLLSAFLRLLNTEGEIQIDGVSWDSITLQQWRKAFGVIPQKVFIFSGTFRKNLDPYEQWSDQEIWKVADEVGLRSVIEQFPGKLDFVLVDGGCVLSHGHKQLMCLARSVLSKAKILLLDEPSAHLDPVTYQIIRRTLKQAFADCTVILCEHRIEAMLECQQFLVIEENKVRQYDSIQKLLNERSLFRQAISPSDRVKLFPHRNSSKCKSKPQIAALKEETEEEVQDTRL

| Compound | Potentiator Vmax (ΔF508-CFTR [3]; [4]) | Corrector Vmax (ΔF508-CFTR [1]; [5]) | EC50 (ΔF508-CFTR [3]; [6]) | Potentiator Vmax (ΔF508-CFTR [3]; [6]) | Corrector Vmax (ΔF508-CFTR [1]; [7]) | also measured |
| --- | --- | --- | --- | --- | --- | --- |
| COc1ccc(C(=O)NCCNc2nc3cc(C)cc(C)c3cc2C#N)cc1 [Compound CP3] |  |  |  |  |  | corrector and potentiator activities, in words (ΔF508-CFTR [1]): both corrector and potentiator activities; apical membrane current (corrector) (ΔF508-CFTR [2]): increase in apical membrane current |
| Cc1cc(C)c2cc(C#N)c(NCCCNC(=O)c3ccncc3)nc2c1 [drawing 181] | 53 µM/s | 61 µM/s |  |  |  | EC50 (ΔF508-CFTR [3]; [4]): 13.2 ± 0.4 µM; EC50 (ΔF508-CFTR [1]; [5]): 8.2 ± 0.4 µM |
| COc1ccccc1C(=O)NCCNc1nc2cc(C)cc(C)c2cc1C#N [drawing 165] | 154 µM/s | 114 µM/s |  |  |  | EC50 (ΔF508-CFTR [1]; [5]): 11 ± 0.9 µM |
| COc1cccc(OC)c1C(=O)NCCNc1nc2cc(C)cc(C)c2cc1C#N | 119 µM/s | 111 µM/s |  |  |  | EC50 (ΔF508-CFTR [3]; [4]): 11.5 ± 1 µM; EC50 (ΔF508-CFTR [1]; [5]): 3.7 ± 0.6 µM |
| COc1ccccc1C(=O)NCCNc1nc2cc(C)cc(C)c2cc1C#N [drawing 147] |  |  | 2.3 µM | 154 µM/s | 114 µM/s |  |
| COc1cccc(C(=O)NCCCNc2nc3cc(C)cc(C)c3cc2C#N)c1 [drawing 159] |  |  | 4.6 µM | 147 µM/s | 134 µM/s |  |
| COc1cccc(C(=O)NCCNc2nc3cc(C)cc(C)c3cc2C#N)c1 [drawing 146] |  |  |  | 306 µM/s | 300 µM/s |  |
| COc1ccccc1C(=O)N1CCN(c2nc3cc(C)cc(C)c3cc2C#N)CC1 [Compound AW1] |  |  |  |  |  | potentiator activity, in words (ΔF508-CFTR [3]; piperazine ring in place of diamino ethylene tether): significant potentiator activity; corrector and potentiator activities, in words (ΔF508-CFTR [1]): potentiator-only activity |
| Cc1cc(C)c2cc(C#N)c(NCCNC(=O)c3cnccn3)nc2c1 | inactive | 174 µM/s |  |  |  | EC50 (ΔF508-CFTR [1]; [5]): 6.7 ± 1 µM |
| Cc1ccc2cc(C#N)c(N3CCCN(C(=O)c4cccs4)CC3)nc2c1 |  |  | 13 µM | 261 µM/s | inactive | Corrector EC50 (ΔF508-CFTR [1]; [7]): inactive |
| COc1cccc(C(=O)NCCCNc2nc3cc(C)cc(C)c3cc2C#N)c1 [drawing 177] | 147 µM/s | 134 µM/s |  |  |  |  |
| COc1ccc(S(=O)(=O)N2CCN(c3nc4ccc(C)cc4cc3C#N)CC2)cc1 [drawing 140] |  |  | 3.8 µM | 72 µM/s | 102 µM/s | EC50 (ΔF508-CFTR [1]; [7]): 5 µM |
| Cc1cc(C)c2cc(C#N)c(NCCNC(=O)c3ccncc3)nc2c1 [drawing 169] | 220 µM/s | 176 µM/s |  |  |  | EC50 (ΔF508-CFTR [3]; [4]): 10 ± 3.1 µM; EC50 (ΔF508-CFTR [1]; [5]): 7.3 ± 0.8 µM |
| Cc1cc(C)c2cc(C#N)c(NCCCNC(=O)c3cccnc3)nc2c1 [drawing 180] | 115 µM/s | 140 µM/s |  |  |  | EC50 (ΔF508-CFTR [1]; [5]): 3 ± 0.5 µM |
| COc1ccccc1C(=O)NCCCNc1nc2cc(C)cc(C)c2cc1C#N | 254 µM/s | inactive |  |  |  | EC50 (ΔF508-CFTR [3]; [4]): 27.6 ± 2 µM |
| COc1ccc(C(=O)NCCCNc2nc3cc(C)cc(C)c3cc2C#N)cc1 [drawing 160] |  |  | 5 µM | 231 µM/s | 112 µM/s |  |

Second part, led by results:

| Potentiator Vmax (ΔF508-CFTR [3]; [4]) | Corrector Vmax (ΔF508-CFTR [1]; [5]) | EC50 (ΔF508-CFTR [3]; [6]) | Potentiator Vmax (ΔF508-CFTR [3]; [6]) | Corrector Vmax (ΔF508-CFTR [1]; [7]) | Compound | also measured |
| --- | --- | --- | --- | --- | --- | --- |
|  |  | 1.2 µM | 200 µM/s | inactive | COc1cccc(C(=O)N2CCN(c3nc4cc(C)cc(C)c4cc3C#N)CC2)c1 [drawing 153] |  |
| 102 µM/s | inactive |  |  |  | Cc1cc(C)c2cc(C#N)c(N3CCN(C(=O)c4ccccn4)CC3)nc2c1 [drawing 173] | EC50 (ΔF508-CFTR [3]; [4]): 7.4 ± 0.3 µM; Corrector EC50 (ΔF508-CFTR [1]; [5]): inactive |
|  |  |  | 102 µM/s | inactive | Cc1cc(C)c2cc(C#N)c(N3CCN(C(=O)c4ccccn4)CC3)nc2c1 [drawing 155] |  |
| inactive | inactive |  |  |  | Cc1cc(C)c2cc(C#N)c(N3CCN(C(=O)c4ccncc4)CC3)nc2c1 | Potentiator EC50 (ΔF508-CFTR [3]; [4]): inactive; Corrector EC50 (ΔF508-CFTR [1]; [5]): inactive |
|  |  | 5 µM | 235 µM/s | inactive | COc1ccc2nc(N3CCN(C(=O)c4ccccc4Br)CC3)c(C#N)cc2c1 | Corrector EC50 (ΔF508-CFTR [1]; [7]): inactive |
|  |  | 11 µM | 195 µM/s | 140 µM/s | COc1ccc2nc(N3CCN(C(=O)c4ccccc4F)CC3)c(C#N)cc2c1 | EC50 (ΔF508-CFTR [1]; [7]): 4.2 µM |
|  |  | 13 µM | 261 µM/s | inactive | COc1ccc2nc(N3CCN(C(=O)c4ccccc4Cl)CC3)c(C#N)cc2c1 | Corrector EC50 (ΔF508-CFTR [1]; [7]): inactive |
| inactive | inactive |  |  |  | Cc1cc(C)c2cc(C#N)c(N3CCN(C(=O)c4cccnc4)CC3)nc2c1 [drawing 174] | Potentiator EC50 (ΔF508-CFTR [3]; [4]): inactive; Corrector EC50 (ΔF508-CFTR [1]; [5]): inactive |
